{
  "source": "paper PMC4744661",
  "about": "(Diabetes/Metabolism Research and Reviews, 2015)",
  "origin": "cited, not measured here",
  "test_system": "gastric emptying",
  "details": "healthy volunteers and patients with T2DM",
  "data": [
    {"substance": "exenatide [exenatide BID]", "values": [
      {"measurement": "effect on gastric emptying / acetaminophen exposure", "value": "substantially slowed gastric emptying"}
    ]},
    {"substance": "liraglutide (HAEGTFTSDVSSYLEGQAAKEFIAWLVRGRG; chains of the INN, looked up)", "values": [
      {"measurement": "effect on gastric emptying / acetaminophen exposure", "value": "equivalent effects on acetaminophen exposure"}
    ]}
  ]
}
